Assays:
[1] = molecular target: T1, Phosphatidylcholine:ceramide cholinephosphotransferase 1 (Homo sapiens, UniProt Q86VZ5); experiment: Inhibition of full length C-terminal FLAG tagged human SMS1 expressed in HEK293 cell membranes using DMPC-d72 and C17-ceramide as substrate preincubated for 60 mins followed by substrate addition measured after 30 mins by RapidFire/mass spectrometry assay
T1 sequence (Q86VZ5 whole entry): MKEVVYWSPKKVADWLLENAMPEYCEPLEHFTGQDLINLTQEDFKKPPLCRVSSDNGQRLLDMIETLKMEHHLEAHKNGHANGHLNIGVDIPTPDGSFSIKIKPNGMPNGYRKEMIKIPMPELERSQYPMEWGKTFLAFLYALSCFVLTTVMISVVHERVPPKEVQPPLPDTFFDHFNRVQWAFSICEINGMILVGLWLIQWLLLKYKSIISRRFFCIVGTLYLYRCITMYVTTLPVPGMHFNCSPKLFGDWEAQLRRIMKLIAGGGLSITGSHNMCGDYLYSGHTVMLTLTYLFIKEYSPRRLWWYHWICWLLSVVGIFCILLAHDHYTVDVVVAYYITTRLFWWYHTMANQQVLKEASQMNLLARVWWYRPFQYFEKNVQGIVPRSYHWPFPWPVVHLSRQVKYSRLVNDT

[2] = molecular target: T2, Phosphatidylcholine:ceramide cholinephosphotransferase 2 (Homo sapiens, UniProt Q8NHU3); experiment: Inhibition of full length C-terminal FLAG tagged human SMS2 expressed in HEK293 cell membranes using DMPC-d72 and C17-ceramide as substrate preincubated for 60 mins followed by substrate addition measured after 30 mins by RapidFire/mass spectrometry assay
T2 sequence (Q8NHU3 whole entry): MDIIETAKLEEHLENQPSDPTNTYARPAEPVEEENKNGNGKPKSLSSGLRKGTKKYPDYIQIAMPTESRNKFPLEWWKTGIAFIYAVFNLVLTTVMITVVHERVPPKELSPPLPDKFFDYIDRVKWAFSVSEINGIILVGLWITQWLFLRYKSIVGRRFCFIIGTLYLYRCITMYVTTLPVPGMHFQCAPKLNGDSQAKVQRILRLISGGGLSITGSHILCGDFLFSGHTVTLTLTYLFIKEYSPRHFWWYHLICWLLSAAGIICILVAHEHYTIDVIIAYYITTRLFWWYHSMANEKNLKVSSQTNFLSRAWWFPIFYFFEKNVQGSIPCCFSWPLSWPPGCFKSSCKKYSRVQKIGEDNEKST

Homo sapiens = species on record: Homo sapiens; experiment: Selectivity index, ratio of IC50 for full length C-terminal FLAG tagged human SMS1 to IC50 for full length C-terminal FLAG tagged human SMS2
HEK-293T = experiment: Cytotoxicity against HEK293T cells by CellTiter-Glo luminescent cell viability assay relative to control; type: cell-based; settings: human
[3] = molecular target: T1, Phosphatidylcholine:ceramide cholinephosphotransferase 1; experiment: Inhibition of human SMS1

| IC50 [1] [µM] | IC50 [2] [µM] | Ratio IC50 (Homo sapiens) | IC50 [3] [µM] | SMILES | Activity (HEK-293T) [%] |
| --- | --- | --- | --- | --- | --- |
| 86 | 56 | 1.5 | – | S=C(S)OC1CC2CC1C1CCCC21 (stereo not given) | – |
| – | – | – | > 100 | CN(Cc1cc(C(F)(F)F)cc(C(F)(F)F)c1)C(=O)c1c(N2CCCC2)c2ccccc2n(C)c1=O | > 50 |

From ChEMBL document CHEMBL4138093, “Discovery and characterization of selective human sphingomyelin synthase 2 inhibitors” (Eur J Med Chem, 2017)
